Experimental data published in patent US20160129122A1, “FATTY ACID ANTIVIRAL CONJUGATES AND THEIR USES” (Catabasis Pharmaceuticals, Inc., priority 2011, published 2016).
Read-outs that look alike come from different tables or passages of the source.

Legend:
[1] = system: NF-κB; test: NF-κB luciferase reporter assay in LPS-stimulated RAW 264.7 macrophages; format: cell-based; conditions: Mus musculus
Protocol: RAW 264.7 cells stably expressing a 3×NFkB response element-drive luciferase reporter were seeded into 96 well plates in sera-free medium (Optimem) 18 hours prior to compound application. Compounds of the invention were prepared by first making 100 mM stock solutions in EtOH. […] Cells were then stimulated with 200 ng/ml LPS or vehicle control for 3 hours in the presence of the compounds of the invention. A set of six vehicles was left unstimulated with LPS in order to measure the assay floor. AlamarBlue viability dye (Invitrogen) was added to cells simultaneously with the delivery of LPS (final AlamarBlue concentration of 10%). After the 3 h incubation period with LPS, cell viability was measured by reading fluorescence (excitation 550 nm, emission 595 nm) with a Perkin Elmer Victor V plate reader. Then cell media was aspirated from each well. Luciferase signal was then developed by addition of the Britelite Plus reagent (Perkin Elmer). Luciferase activity was measured with the Perkin Elmer Victor V plate reader. NF-κB activity was expressed as a percent of the vehicle control wells (stimulated with LPS). Compounds were tested at 6 dose point titrations in triplicate to determine IC50 values.

[2] = system: HIV-1IIIB strain; test: HIV-1 cytoprotection assay (CEM-SS cells, MTS dye reduction); format: cell-based
[3] = RAW264.7, read-out: NF-kB inhibitory activity IC50 μM
[4] = Human immunodeficiency virus 1, IIIB, CEM-SS, 144 h, read-out: IC50 HIV-1IIIB strain (nM)
[5] = Human immunodeficiency virus 1, 144 h, CEM-SS cells, HIV-1 IIIB strain, 6 days incubation, cytoprotection by MTS, read-out: IC50 HIV-1IIIB strain
[6] = RAW264.7, RAW 264.7 cells with 3×NFkB response element luciferase reporter, 2 h pretreatment, 200 ng/ml LPS for 3 h, read-out: NF-kB inhibitory activity IC50

Structure (SMILES) | IC50 [1, 3] [µM] | IC50 [2, 4] [nM] | IC50 [2, 5] [nM] | IC50 [1, 6] [µM]
C=C1[C@H](COP(=O)(NCCNC(=O)CCC/C=C\C/C=C\C/C=C\C/C=C\C/C=C\CC)OC)[C@@H](O)C[C@@H]1n1cnc2c(=O)nc(N)[nH]c21 (stereo partly drawn) [II-48, ((1R,3S,5S)-3-(2-amino-6-oxo-3H-purin-9(6H)-yl)-5-hydroxy-2-methylenecyclopentyl)methyl methyl (2-((5Z,8Z,11Z,14Z,17Z)-icosa-5,8,11,14,17-pentaenamido)ethyl)phosphoramidate] | 50 to 200 |  |  | 
CC/C=C\C/C=C\C/C=C\C/C=C\C/C=C\C/C=C\CCC(=O)NCCNP(=O)(OC[C@H]1OC(n2cc(C)c(=O)[nH]c2=O)C[C@@H]1N=[N+]=[N-])Oc1ccccc1 (stereo partly shown) [II-25] | < 50 | < 100 |  | 
CC/C=C\C/C=C\C/C=C\C/C=C\C/C=C\C/C=C\CCC(=O)Nc1ccn(C2CS[C@H](CO)O2)c(=O)n1 (stereo partly shown) [Compound V-18] |  |  | < 100 | > 200
CC/C=C\C/C=C\C/C=C\C/C=C\C/C=C\C/C=C\CCC(=O)NCCNC(=O)OC[C@H]1OC(n2cc(C)c(=O)[nH]c2=O)C[C@@H]1N=[N+]=[N-] (stereo partly shown) [Compound V-5] |  |  | > 100 | < 50
CC/C=C\C/C=C\C/C=C\C/C=C\C/C=C\CCCC(=O)NCCNP(=O)(OC)OC[C@@H]1O[C@H](n2ccc(N)nc2=O)CS1 (stereo partly drawn) [II-70, ((2R,5S)-5-(4-amino-2-oxopyrimidin-1(2H)-yl)-1,3-oxathiolan-2-yl)methyl methyl (2-((5Z,8Z,11Z,14Z,17Z)-icosa-5,8,11,14,17-pentaenamido)ethyl)phosphoramidate] | 50 to 200 |  |  | 
CC/C=C\C/C=C\C/C=C\C/C=C\C/C=C\C/C=C\CCC(=O)NCCNP(=O)(OC[C@@H]1O[C@H](n2ccc(N)nc2=O)CS1)Oc1ccccc1 (stereo partly drawn) [II-67, ((2R,5S)-5-(4-amino-2-oxopyrimidin-1(2H)-yl)-1,3-oxathiolan-2-yl)methyl phenyl (2-((4Z,7Z,10Z,13Z,16Z,19Z)-docosa-4,7,10,13,16,19-hexaenamido)ethyl)phosphoramidate] | < 50 | < 100 |  | 
CC/C=C\C/C=C\C/C=C\C/C=C\C/C=C\CCCC(=O)NCCNP(=O)(OC)OC[C@H]1OC(n2cc(C)c(=O)[nH]c2=O)C[C@@H]1N=[N+]=[N-] (stereo partly shown) [II-30] | < 50 | > 100 |  | 
CC/C=C\C/C=C\C/C=C\C/C=C\C/C=C\C/C=C\CCC(=O)NCCNC(=O)OC[C@@H]1OC(n2ccc(N)nc2=O)CS1 (stereo partly drawn) [Compound V-21, ((2R,5S)-5-(4-amino-2-oxopyrimidin-1(2H)-yl)-1,3-oxathiolan-2-yl)methyl(2-((4Z,7Z,10Z,13Z,16Z,19Z)-docosa-4,7,10,13,16,19-hexaenamido)ethyl)carbamate] | 50 to 200 | < 100 |  | 
CC/C=C\C/C=C\C/C=C\C/C=C\C/C=C\C/C=C\CCC(=O)NCCOCCNC(=O)OC[C@H]1OC(n2cc(C)c(=O)[nH]c2=O)C[C@@H]1N=[N+]=[N-] (stereo partly shown) [Compound V-8] |  |  |  | 50 to 200
CC(C)CN(C[C@@H](O)[C@H](Cc1ccccc1)NC(=O)O[C@H]1CO[C@H]2OCC[C@H]21)S(=O)(=O)c1ccc(N)cc1 [Darunavir, darunavir, reference compound] | > 200 |  |  | 
CC/C=C\C/C=C\C/C=C\C/C=C\C/C=C\CCCC(=O)Nc1ccc(S(=O)(=O)N(CC(C)C)C[C@@H](O)[C@H](Cc2ccccc2)NC(=O)O[C@H]2CO[C@H]3OCC[C@H]32)cc1 [VII-2, (3R,3aS,6aR)-hexahydrofuro[2,3-b]furan-3-yl((2S,3R)-3-hydroxy-4-(4-((5Z,8Z,11Z,14Z,17Z)-icosa-5,8,11,14,17-pentaenamido)-N-isobutylphenylsulfonamido)-1-phenylbutan-2-yl)carbamate] |  |  | < 100 | 
CC/C=C\C/C=C\C/C=C\C/C=C\C/C=C\C/C=C\CCC(=O)Nc1ccc(S(=O)(=O)N(CC(C)C)C[C@@H](O)[C@H](Cc2ccccc2)NC(=O)O[C@H]2CO[C@H]3OCC[C@H]32)cc1 [VII-1, (3R,3aS,6aR)-hexahydrofuro[2,3-b]furan-3-yl((2S,3R)-4-(4-((4Z,7Z,10Z,13Z,16Z,19Z)-docosa-4,7,10,13,16,19-hexaenamido)-N-isobutylphenylsulfonamido)-3-hydroxy-1-phenylbutan-2-yl)carbamate] | 50 to 200 | < 100 |  | 
